# Reference: patent US7709242B2, “L-tyrosine producing bacterium and a method for producing L-tyrosine” (Ajinomoto Co., Inc., priority 2004, dated 2010)
# Columns and labels:
# [1] = system: PDH of strains carrying pSTVtyrA-2, -5, -10, and -24; assay: PDH activity in crude enzyme solution at L-tyrosine concentrations, pSTVtyrA-2, -5, -10, -24 strains; format: biochemical, Escherichia coli; conditions: in the presence of 100 μM L-tyrosine
# Description: (§1) W3110 ΔtyrR,tyrA/pSTVtyrA-1, -2, -5, -10, and -24 strains were cultured at 37° C. for 15 hours in a LB medium, respectively and each culture solution was centrifuged to collect bacterial cells. Next, after the bacterial cells were washed twice with 50 mM Tris-HCl (pH 7.5) and suspended in 50 mM Tris-HCl (pH 7.5) containing 20% glycerol on ice, a crude enzyme solution was prepared by repeating 30 second-ultrasonication 80 times. Then, the PDH activity was measured according to the method described in Biochemistry. 1990 Nov. 6; 29(44): 10245-54. That is, the enzyme reaction was performed at 30° C. for 10 minutes in 50 mM Tris-HCl (pH 7.5) containing 0.25 mM prephenate, 1 mM EDTA, 1 mM DTT, and 2 mM NAD, and the generated NADH was measured at an absorption wavelength of 340 nm. A protein assay was carried out by the Bradford method. […] Hereinafter, this tyrA gene inserted into pSTVtyrA-1 is referred to as tyrA(mut).
# [2] = target: PDH (encoded by the tyrA gene) (Escherichia coli, UniProt P07023); conditions: Biochemistry. 1985 Feb. 26; 24(5): 1116; cited from earlier work
# [3] = target: T1, PDH containing the 254/269 mutations (mutant 6, A254G/E269Y) (Escherichia coli, UniProt P07023, A254G/E269Y); assay: PDH activity in crude enzyme solution at tyrosine concentrations, 254/269 mutant; format: biochemical; conditions: in the presence of 800 μM tyrosine; strain harboring PDH with 254/269 mutations
# T1 construct: amplify a full length fragment of the tyrA gene which has mutations introduced; made in house; host or cells: Escherichia coli W3110 ΔtyrR,tyrA, plasmid pSTV28 (SmaI site); crude enzyme solution
# Description: (§2) A strain containing mutant 7 (257/265), a strain containing mutant 6 (254/269), both shown in Table 3, and a strain containing the T260I mutation shown in Table 2 were cultured at 37° C. for 15 hours in LB medium, and after the culture, the resulting culture was centrifuged to collect bacterial cells. Then, after the bacterial cells were washed twice with 50 mM Tris-HCl (pH 7.5) and suspended in 50 mM Tris-HCl (pH 7.5) containing 20% glycerol on ice, a crude enzyme solution was prepared by repeating 30 second-ultrasonication 80 times. PDH activity was measured according to the method described in Biochemistry. 1990 Nov. 6; 29(44): 10245-54. That is, a reaction was carried out at 30° C. for 10 minutes in 50 mM Tris-HCl (pH 7.5) containing 0.25 mM prephenate, 1 mM EDTA, 1 mM DTT, and 2 mM NAD^+, and NADH was measured at an absorption wavelength of 340 nm. A protein assay was carried out by the Bradford method. […] However, the PDH activity of the strain harboring the PDH with the 257/265 mutation could not be measured even though the L-tyrosine yield was high.
# [4] = target: T2, PDH containing the T260I mutation (Escherichia coli, UniProt P07023, T260I); assay: PDH activity in crude enzyme solution at tyrosine concentrations, T260I mutant; format: biochemical; conditions: in the presence of 800 μM tyrosine; strain harboring PDH with T260I
# T2 construct: EcoRI-CpoI fragment containing no mutation excised from pSTVtyrA(W) was connected to the vector fragment of EcoRI-CpoI-digested pSTVtyrA(mut); made in house; host or cells: Escherichia coli W3110 ΔtyrR,tyrA, plasmid pSTVtyrA(T260I); crude enzyme solution
# Description: as §2
# [5] = target: T3, wild-type PDH (prephenate dehydrogenase) (Escherichia coli, UniProt P07023); assay: PDH activity in crude enzyme solution at L-tyrosine concentrations, wild-type PDH; format: biochemical; conditions: in the presence of 100 μM L-tyrosine; strain carrying wild-type PDH
# T3 construct: made in house; host or cells: Escherichia coli (crude enzyme solution of sonicated cells)
# Description: Such mutant PDH can be obtained by introducing amino acid substitutions into wild-type PDHs and selecting a PDH which is not subject to feedback inhibition by L-tyrosine due to the amino acid substitution-introduced PDHs. Specifically, nucleotide substitutions causing amino acid substitutions are introduced into a DNA encoding PDH (e.g., SEQ ID NO: 1) by the use of, for example, site-directed mutagenesis using PCR or the like, and an Escherichia bacterium, preferably an Escherichia bacterium in which a wild-type PDH gene is disrupted is transformed with the mutated DNA. The PDH activity of the bacterium is then measured in the presence and absence of L-tyrosine, and a strain in which PDH is resistant to feedback inhibition by L-tyrosine is selected. PDH activity can be measured according to the method described in Biochemistry. 1990 Nov. 6; 29(44): 10245-54.
# W3110 ΔtyrR,tyrA/pSTVtyrA-1, -2, -5, -10, and -24 strains were cultured at 37° C. for 15 hours in a LB medium, respectively and each culture solution was centrifuged to collect bacterial cells. […] Then, the PDH activity was measured according to the method described in Biochemistry. […] That is, the enzyme reaction was performed at 30° C. for 10 minutes in 50 mM Tris-HCl (pH 7.5) containing 0.25 mM prephenate, 1 mM EDTA, 1 mM DTT, and 2 mM NAD, and the generated NADH was measured at an absorption wavelength of 340 nm. […]
# [6] = target: T4, PDH of W3110 ΔtyrR,tyrA/pSTVtyrA-1 strain (tyrA(mut), P100S/T260I) (Escherichia coli, UniProt P07023, P100S/T260I); assay: PDH activity in crude enzyme solution at L-tyrosine concentrations, pSTVtyrA-1 strain; format: biochemical; conditions: in the presence of 800 μM L-tyrosine
# T4 construct: The resulting mutated fragment was then ligated to pSTV28; made in house; host or cells: Escherichia coli W3110 ΔtyrR,tyrA (endogenous tyrA disrupted), plasmid pSTV28; crude enzyme solution
# Description: as §1
# The nucleotide sequence of the tyrA(mut) gene was determined according to a standard method. In this mutant, proline at position 100 and threonine at position 260 were replaced by serine and isoleucine, respectively. […] The obtained strains were cultured and L-tyrosine production was evaluated. […]
# T2 sequence (P07023 whole entry T260I, the tested form may be a part): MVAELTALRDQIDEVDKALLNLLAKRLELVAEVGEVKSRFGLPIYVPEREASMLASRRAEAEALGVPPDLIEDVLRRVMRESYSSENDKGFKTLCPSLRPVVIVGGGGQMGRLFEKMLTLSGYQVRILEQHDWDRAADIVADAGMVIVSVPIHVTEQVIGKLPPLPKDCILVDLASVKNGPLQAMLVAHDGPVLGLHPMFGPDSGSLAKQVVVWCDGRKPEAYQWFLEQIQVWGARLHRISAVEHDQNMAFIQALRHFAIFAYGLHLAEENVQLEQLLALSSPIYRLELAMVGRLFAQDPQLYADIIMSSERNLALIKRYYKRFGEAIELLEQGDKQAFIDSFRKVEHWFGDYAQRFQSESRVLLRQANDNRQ
# T1 sequence (P07023 whole entry A254G/E269Y, the tested form may be a part): as the sequence (P07023 whole entry T260I, the tested form may be a part) above, with A254G, I260T, E269Y counted along it
# T4 sequence (P07023 whole entry P100S/T260I, the tested form may be a part): as the sequence (P07023 whole entry T260I, the tested form may be a part) above, with P100S counted along it
# Sequence of PDH (encoded by the tyrA gene) (P07023 whole entry): as the sequence (P07023 whole entry T260I, the tested form may be a part) above, with I260T counted along it
# T3 sequence (P07023 whole entry): as the sequence (P07023 whole entry T260I, the tested form may be a part) above, with I260T counted along it
smiles,measurement,setting,value
N[C@@H](Cc1ccc(O)cc1)C(=O)O [L-tyrosine],inhibition of PDH activity,[1],strongly inhibited
same,concentration of L-tyrosine at which PDH is inhibited (as low as),[2],300 µM
same,inhibition of PDH activity,[3],almost no inhibition
same,inhibition of PDH activity,[4],almost no inhibition
same,inhibition of PDH activity,[5],strongly inhibited
same,inhibition of PDH activity,[6],almost no inhibition
